The results in this text go back to patent publication US10487071B2, “Bis-triazole compounds with anti-biofilm and anti-corrosion properties” (Université de Toulon, priority 2015, dated 2019).

Like-named read-outs stand apart in the source and are kept apart here.

For series [1], the system named is Pseudoalteromonas ulvae (TC14). The series can be described thus: Anti-adhesion test, strain TC14. It counts as cell-based. To be noted: for activity at 200 µM / EC50: Pseudoalteromonas ulvae; for activity at 200 µM: 15 h; for EC50: read-out: EC50 (effective concentration to inhibit 50% of the adhesion); for activity at 200 µM / inhibition of the adhesion of bacterial strain TC14: 200 μM. In short, it runs like this:
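Stationary-phase TC14 cells grown in VNSS, diluted in artificial seawater and incubated with compound at eight concentrations in triplicate (DMSO ≤2%) for about 15 h. Non-adhered bacteria removed and adhered cells quantified by SYTO 61 (1 μM) staining. EC50 derived from sigmoid fit of % inhibition versus log concentration.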

The test system of series [2] is Pseudoalteromonas lipolytica (TC8). The series can be described thus: Anti-adhesion test, strain TC8. To be noted: Pseudoalteromonas lipolytica; for activity at 200 µM: 15 h, read-out: % of adhesion at 200 μM, TC8; for EC50: read-out: EC50 (effective concentration to inhibit 50% of the adhesion), TC8. It counts as cell-based. In short, it runs like this:
(§1)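 Stationary-phase bacteria grown in VNSS, diluted in artificial sea water and incubated about 15 h with compound at eight concentrations in triplicate, DMSO up to 2%. Adhered cells stained with SYTO 61 (1 μM). EC50 from a sigmoid fit of % inhibition against log concentration.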

Series [3] concerns Paracoccus sp. (4M6). Nature of the series: Anti-adhesion test, strain 4M6. It counts as cell-based. To be noted: Paracoccus; for activity at 200 µM: 15 h, read-out: % of adhesion at 200 μM, 4M6; for EC50: read-out: EC50 (effective concentration to inhibit 50% of the adhesion), 4M6. In short, it runs like this:
as §1

Series [4] is described as follows: Electrochemical impedance spectroscopy, corrosion inhibition. To be noted: 200 ppm; mild steel in 1N HCl; EIS. The procedure:
The corrosion rates were determined by electrochemical impedance spectroscopy measurements and gravimetry.
The electrochemical measurements were performed on a 273 A potentiostat (EGG/PAR) coupled to a Solartron 1255 frequency response analyser. EIS measurements were carried out with a solution containing 1N HCl in the absence and presence of the tested compound at a concentration of 200 ppm under unstirred conditions, at open circuit potential with a 10 mV rms amplitude perturbation over a 20 mHz-100 kHz frequency range.
EIS data were registered and analysed using Zview software (Scribners Associates, USA).
A conventional three-electrode cell was used. It comprises a platinum foil as auxiliary electrode, a saturated calomel reference electrode (SCE) and a mild steel coupon as the working electrode with a surface area of 15.7 cm^2.
Electrochemical impedance spectroscopic (EIS) studies have been conducted to investigate corrosion inhibition processes of compounds of the invention according to the Electrochemical impedance spectroscopic test method described herein.
The high frequency loop was analyzed in terms of an equivalent circuit involving a parallel combination of Rct and the constant phase element of double layer (CPE). The inhibition efficiency, IE (%), was estimated from the measured Rct values using the following equation: […]

Series [5] is described as follows: Gravimetry (weight loss), corrosion inhibition. The following applies: mild steel in 1N HCl. In short, it runs like this: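 Mild steel coupons (2.5×2.0×0.1 cm) immersed in non-de-aerated 1N HCl without or with various inhibitor concentrations, then washed, dried and reweighed; duplicate runs. IE (%) calculated from corrosion rates without (CR^o) and with (CR) inhibitor.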

Series [6] relates to Polaribacter sp. (TC5). The series can be described thus: Anti-adhesion test, strain TC5. It counts as cell-based. The following applies: for activity at 200 µM: 15 h; for EC50: read-out: EC50 (effective concentration to inhibit 50% of the adhesion).
Series [7] concerns Shewanella sp. (TC11). The series can be described thus: Anti-adhesion test, strain TC11. The format is cell-based. To be noted: for activity at 200 µM: 15 h; for EC50: read-out: EC50 (effective concentration to inhibit 50% of the adhesion), strain TC11.
In series [8] the test system is Pseudoalteromonas ulvae (TC14). The series can be described thus: Toxicity test, strain TC14. It counts as cell-based. The source says:
Pseudoalteromonas ulvae (TC14) was isolated in June 2010 in the Military Harbor of Toulon (Mediterranean Sea, France) as described in F. Brian-Jaisson, A. Ortalo-Magné, L. Guentas-Dombrowsky, F. Armougom, Y. Blache, M. Molmeret, Microb. Ecol., 2014, 68, 94-110.

For series [9], the system named is Paracoccus sp. (4M6). The series can be described thus: microbe, parasite or virus in culture. To be noted: for CC50: Paracoccus, read-out: LC50 (necessary concentration to kill 50% of the bacteria), 4M6; for IS: LC50/EC50 (selectivity index), 4M6: strain 4M6. The source says:
(§2) The anti-adhesion bioassays and toxicity tests are adapted from those disclosed in M. Camps, J.-F. Briand, L. Guentas-Dombrowsky, G. Culioli, A. Bazire and Y. Blache, Mar. Poll.
(§3) After growth on VNSS, bacterial strains were harvested during the exponential phase. The microtiter plates (sterile transparent PS; Nunc, Fisher Scientific) were filled as described in the Anti-adhesion test method using VNSS instead of ASW to allow bacterial growth. The growth was followed by measuring the turbidity (OD600 nm) every hour during 6 or 7 hours. Then, resazurin (50 μM) was added in all the wells, and fluorescence was measured after 2 h to quantify the percent of bacterial viability. The same methodology used with SYTO 61 was applied to calculate a percent of viability after resazurin staining.

Series [10] deals with Pseudoalteromonas lipolytica (TC8). Nature of the series: microbe, parasite or virus in culture. To be noted: for CC50: Pseudoalteromonas lipolytica, read-out: LC50 (necessary concentration to kill 50% of the bacteria), TC8; for IS: LC50/EC50 (selectivity index), TC8: strain TC8.
From the text: as §2, §3

In series [11] the test system is Polaribacter sp. (TC5). Nature of the series: Toxicity test, strain TC5. The format is cell-based. The following applies: for CC50: read-out: LC50 (necessary concentration to kill 50% of the bacteria). The source says:
Polaribacter sp. (TC5) was isolated in June 2010 in the Military Harbor of Toulon (Mediterranean Sea, France) as described in F. Brian-Jaisson, A. Ortalo-Magné, L. Guentas-Dombrowsky, F. Armougom, Y. Blache, M. Molmeret, Microb. Ecol., 2014, 68, 94-110.

The test system of series [12] is Shewanella sp. (TC11). The series can be described thus: Toxicity test, strain TC11. The format is cell-based. From the text: Shewanella sp. (TC11) was isolated in June 2010 in the Military Harbor of Toulon (Mediterranean Sea, France) as described in F. Brian-Jaisson, A. Ortalo-Magné, L. Guentas-Dombrowsky, F. Armougom, Y. Blache, M. Molmeret, Microb. Ecol., 2014, 68, 94-110.

Series [13] relates to marine bacterial strains (TC14, TC8, 4M6, TC5 and TC11). Nature of the series: Anti-adhesion test, summary over the strains. The format is cell-based. To be noted: for EC50 compared with TBTO/ZINEB: comparison with reference biocides. The procedure:
Bacterial strains were grown on Väätänen nine-salts solution (VNSS). When the stationary phase was reached, the bacterial suspension was centrifuged. Cells were then diluted in sterile artificial sea water (ASW) and introduced in microtiter plates (sterile black PS; Nunc, Fisher Scientific, France) with the tested compound (at eight concentrations in three replicates) in the presence of three controls: (i) non-specific staining control, (ii) adhesion control, and (iii) positive control. The maximum percentage of solvent (DMSO 2%) used to dilute the tested compound was also tested in triplicate as additional control. After incubation during an optimized adhesion time (moderately 15 h), non-adhered bacteria were eliminated and adhered cells were quantified after SYTO 61 (1 μM) staining. A percentage of inhibition was calculated per well. A sigmoid dose-response curve was obtained by plotting the percentage of inhibition as a function of the log of tested compound concentration, after mean (n=3) and standard deviation (SD) calculation per triplicate for each concentration. EC50 values were then calculated for each compound.
(§4) In examples 64 and 65, the following marine bacterial strains are used.

For series [14] the test system is unchanged. Nature of the series: Toxicity test, summary over the strains. The format is cell-based. To be noted: comparison with reference biocides.
From the text: as §4

[15] abbreviates: read-out: inhibition of the adhesion of at least four marine bacterial strains.
Setting [16] is: read-out: inhibition of the adhesion of at least two marine bacterial strains.

Consider `CN(C)CCOc1ccc(CCn2cc(CNCc3cn(CCc4ccc(OCCN(C)C)c(Br)c4)nn3)nn2)cc1Br` [AS164], for which the activity at 200 µM amounted to 40.8 ± 5% in series [1], 47.1 ± 1% in series [2] and 51.7 ± 4.3% in [3]. Besides, the EC50 in [1] worked out at 126 ± 21.5 µM; in series [2], 176 ± 3 µM. Further, the “inhibition efficiency (IE %) from Rct values” in series [4] is on record as “around 95%”. For the same compound, the IE % turned out to be 57.10% in series [5] (0.1 ppm); 90.49% in series [5] (0.3 ppm); 89.20% in series [5] (0.5 ppm); 92.42% in series [5] (2 ppm); 97.20% in series [5] (10 ppm). Moreover, in series [5] (25-200 ppm), the “inhibition efficiency from weight loss experiments” value was “greater than 97%”.
In general, inhibition refers to how much of the control response was suppressed. With `CN(C)CCOc1ccc(CCn2cc(-c3ccc(-c4cn(CCc5ccc(OCCN(C)C)c(Br)c5)nn4)cc3)nn2)cc1Br` [AS162, 2-(4-(2-(4-(4-(1-(4-(2-(dimethylamino)ethoxy)-3-bromophenethyl)-1H-1,2,3-triazol-4-yl)phenyl)-1H-1,2,3-triazol-1-yl)ethyl)-2-bromophenoxy)-N,N-dimethylethanamine], the “inhibition of the adhesion of bacterial strain TC14” value in [1] is listed as “totally inhibit”. For the same compound, the activity at 200 µM in [1] came out at 0%; in series [2], 14%; in series [3], 10.9 ± 8.1%; in [6] it was 21.5 ± 6.6%; in series [7] (read-out: % of adhesion at 200 μM, TC11) it was 4.3 ± 7.5%. Besides, the EC50 in series [1] stood at 0.97 ± 0.8 µM; in series [2] it was 5.1 ± 1 µM; in series [3], 5.1 ± 1.04 µM; in series [6], 15.5 ± 0.1 µM; in [7], 12.6 ± 5.1 µM. For the same compound, in [8], the “IS: LC50/EC50 (selectivity index), TC14” value turned out to be 265.7. For the same compound, the “LC50 (necessary concentration to kill 50% of the bacteria), TC14” value in series [8] was found to be 257.7 µM. Moreover, the values for the CC50 in series [9], in [10] and in series [11] were 97.6 µM, 66.1 µM and 382 µM, respectively. The “IS: LC50/EC50 (selectivity index), 4M6” value in series [9] is recorded as 19.2. The “IS: LC50/EC50 (selectivity index), TC8” value in series [10] was 12.9. For the same compound, the “IS: LC50/EC50 (selectivity index), TC5” value in series [11] is 24.6. Besides, the “IS: LC50/EC50 (selectivity index), TC11” value in series [12] was 26.5. Besides, in [12], the “LC50 (necessary concentration to kill 50% of the bacteria), TC11” value was 334.3 µM. Further, the IE % in [5] (0.1 ppm) is reported as 48.81%; in [5] (0.3 ppm), 93.35%; in series [5] (0.5 ppm), 92.92%; in series [5] (2 ppm), 97.73%; in [5] (10 ppm) it was 97.30%. In addition, in series [13], the “EC50 compared with TBTO/ZINEB” value is “comparable to that of TBTO and lower than that of ZINEB”. Besides, the inhibition at 200 µM was not below 85% in series [13] (setting [15]) and not below 65% in series [13] (setting [16]). Also, the “toxicity by LC50 values compared with TBTO/ZINEB” value in series [14] is “less toxic than TBTO and ZINEB”.
Regarding `CN(C)CCCOc1ccc(CCn2cc(-c3ccc(-c4cn(CCc5ccc(OCCCN(C)C)c(Br)c5)nn4)cc3)nn2)cc1Br` [AS172, 3-(4-(2-(4-(4-(1-(4-(3-(dimethylamino)propoxy)-3-bromophenethyl)-1H-1,2,3-triazol-4-yl)phenyl)-1H-1,2,3-triazol-1-yl)ethyl)-2-bromophenoxy)-N,N-dimethylpropan-1-amine], the “inhibition of the adhesion of bacterial strain TC14” value in series [1] was “totally inhibit”. Further, the activity at 200 µM in series [1] came to 0.5 ± 0.8%; in series [2], 5.3 ± 2.5%; in [3], 5.1 ± 1.4%; in series [6], 12.7 ± 5.7%; in series [7] (200 μM, strain TC11, read-out: % of adhesion at 200 μM, TC11), 4.6 ± 0.4%. Moreover, the EC50 came out at 0.39 ± 0.28 µM in [1]; 15 ± 3.3 µM in series [2]; 3.6 ± 3.8 µM in series [3]; 11 ± 0.3 µM in series [6]; 15.6 ± 2.9 µM in series [7]. Further, the “IS: LC50/EC50 (selectivity index), TC14” value in [8] was found to be 576.1. In addition, the “LC50 (necessary concentration to kill 50% of the bacteria), TC14” value in series [8] amounted to 224.7 µM. Also, the results for the CC50 in [9], in series [10] and in series [11] were 82.3 µM, 165 µM and 122 µM, respectively. The “IS: LC50/EC50 (selectivity index), 4M6” value in series [9] was 22.9. For the same compound, the “IS: LC50/EC50 (selectivity index), TC8” value in series [10] turned out to be 10.9. Moreover, the “IS: LC50/EC50 (selectivity index), TC5” value in series [11] was determined as 11.1. In [12], the “IS: LC50/EC50 (selectivity index), TC11” value came out at 18.9. Further, the “LC50 (necessary concentration to kill 50% of the bacteria), TC11” value in series [12] is 293 µM. The IE % stood at 40.16% in series [5] (0.1 ppm); 92.94% in series [5] (0.3 ppm); 91.11% in [5] (0.5 ppm); 96.44% in series [5] (2 ppm); 98.15% in series [5] (10 ppm). Besides, the “EC50 compared with TBTO/ZINEB” value in [13] was “comparable to that of TBTO and lower than that of ZINEB”. For the same compound, the values for the inhibition at 200 µM in [13] (setting [15]) and in [13] (setting [16]) were not below 85% and not below 65%, respectively. The “toxicity by LC50 values compared with TBTO/ZINEB” value in [14] is “less toxic than TBTO and ZINEB”.
